The target in this assay is T1, Purine nucleoside phosphorylase (PNPase) (Homo sapiens, UniProt P00491).
T1 construct: Purine nucleoside phosphorylase (PNPase) was purified from human erythrocytes; from tissue; host or cells: human erythrocytes
T1 sequence (P00491 1-289): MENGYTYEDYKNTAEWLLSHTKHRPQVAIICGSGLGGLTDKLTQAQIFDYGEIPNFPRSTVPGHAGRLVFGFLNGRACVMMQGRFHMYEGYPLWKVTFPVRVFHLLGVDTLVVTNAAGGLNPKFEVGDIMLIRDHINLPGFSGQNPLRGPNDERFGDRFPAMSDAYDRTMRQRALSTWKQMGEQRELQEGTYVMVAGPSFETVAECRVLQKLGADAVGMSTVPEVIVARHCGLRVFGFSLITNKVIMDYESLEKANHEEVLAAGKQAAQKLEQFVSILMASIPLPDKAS
Briefly: Inhibition of purine nucleoside phosphorylase, spectrophotometric assay of inosine phosphorolysis coupled with xanthine oxidase. It is filed as biochemical. The method, then: Enzymology-Purine nucleoside phosphorylase (PNPase) was purified from human erythrocytes by the procedure of Agarwal et al (1). PNPase and xanthine oxidase were desalted before use (2). […] PNPase was assayed spectrophotometrically as previously described (2). In addition to PNPase, the reaction mixtures contained 0.1 mM inosine, 1 mM potassium phosphate, 100 mM Tris=HCl buffer (pH 7.5), 2µM ZnCl₂, and 0.2 U/ml of xanthine oxidase. […] The percent inhibition (%I) of PNP by a single concentration of inhibitor was measured (3).

[1] abbreviates: apparent inhibition constant calculated from percent inhibition at a single inhibitor concentration assuming competitive inhibition, PNPase from human erythrocytes, 0.1 mM inosine, 1 mM potassium phosphate, pH 7.5, 2µM ZnCl₂, read-out: Ki.

Read-outs that look alike come from different tables or passages of the source.

With `Nc1nc(O)c2ncn(CCCCCCCP(=O)(O)CP(=O)(O)O)c2n1` [Compound 4, (((7-(2-amino-1,6-dihydro-6-oxo-9H-purin-9-yl)heptyl)phosphinico)methyl)phosphonic acid], the Ki under setting [1] is 8.3 nM. On to `Nc1nc(O)c2ncn(CCCCP(=O)(O)CP(=O)(O)O)c2n1` [Compound 2, (((4-(2-amino-1,6-dihydro-6-oxo-9H-purin-9-yl)butyl)phosphinico)methyl)phosphonic acid], for which, under setting [1], the Ki is 77 nM. For `CCOP(=O)(O)CP(=O)(O)CCCCCn1cnc2c(O)nc(N)nc21` [Compound 5, ethyl hydrogen (((5-(2-amino-1,6-dihydro-6-oxo-9H-purin-9-yl)pentyl)phosphinico)methyl)phosphonate], the Ki stood at 870 nM.

With `Nc1nc2c(ncn2CCCOCP(=O)(O)CP(=O)(O)O)c(=O)[nH]1` [Compound 6, ((((3-(2-amino-1,6-dihydro-6-oxo-9H-purine-9-yl)propoxy)methyl)phosphinico)methyl)phosphonic acid], the Ki under setting [1] is 4.5 nM.

Values taken from patent publication EP0478292A1, “Heterocyclic compounds” (THE WELLCOME FOUNDATION LIMITED, priority 1990, dated 1992).
